For six molecules, MIC results are on record in patent publication US20100197679A1, “COMPOUNDS” (Glaxo Group Limited, priority 2007, published 2010).

The term MIC denotes the least concentration at which growth counts as inhibited.

Each structure is given as a SMILES string. Counter-ions that a name gives are not always drawn. Like-named read-outs stand apart in the source and are kept apart here.

The subject of assay [1] is Mycobacterium tuberculosis H37Rv. In words: Mycobacterium tuberculosis H37Rv Inhibition Assay (MIC, resazurin fluorescence). It is filed as cell-based. The following applies: ATCC 25618 / H37Rv.
Assay [2] is described as follows: Whole-cell antimicrobial activity assay, broth microdilution (CLSI M7-A7), MIC. The class given is cell-based. Particulars: two-fold dilutions 0.016 to 16 mcg/mL, at least one of the listed Gram-positive/Gram-negative organisms, at least one exemplified salt or free base form, read-out: MIC against at least one of the organisms listed. The protocol:
Whole-cell antimicrobial activity was determined by broth microdilution using the Clinical Laboratory Standards Institute (CLSI) recommended procedure, Document M7-A7, “Methods for Dilution Susceptibility Tests for Bacteria that Grow Aerobically”. The compounds were tested in serial two-fold dilutions ranging from 0.016 to 16 mcg/mL.
The minimum inhibitory concentration (MIC) was determined as the lowest concentration of compound that inhibited visible growth. A mirror reader was used to assist in determining the MIC endpoint.
Compounds were evaluated against Gram-positive organisms, including Staphylococcus aureus, Streptococcus pneumoniae, Streptococcus pyogenes, Enterococcus faecalis and Enterococcus faecium.
In addition, compounds were evaluated against Gram-negative organisms including Haemophilus influenzae, Moraxella catarrhalis, Escherichia coli, Pseudomonas aeruginosa, Proteus mirabilis, Enterobacter cloacae, Enterobacter aerogenes, Klebsiella pneumoniae, Acinetobacter baumanii and Stenotrophomonas maltophilia.
A general note: Broth dilution looks for growth in wells or tubes with falling amounts of substance.

[3] abbreviates: H37Rv strain (ATCC25618), Middlebrook 7H9+ADC, six days at 37° C., resazurin read after 48 hours, read-out: MIC value.

As for `COc1ccc2ncc(=O)n(-c3cnc4c(c3)C[C@@H](O)[C@H](NCc3cc5c(cn3)OCCO5)C4)c2n1` (racemic) [Example 18, 4-{(6R/S,7R/S)-7-[(2,3-Dihydro[1,4]dioxino[2,3-c]pyridin-7-ylmethyl)amino]-6-hydroxy-5,6,7,8-tetrahydro-3-quinolinyl}-6-(methyloxy)pyrido[2,3-b]pyrazin-3(4H)-one dihydrochloride], in assay [1] (read-out: MIC value, H37Rv strain (ATCC25618), Middlebrook 7H9+ADC, six days at 37° C., resazurin read after 48 hours), the minimum inhibitory concentration (MIC) is not above 1.1 µg/mL. Turning to `COc1ccc2ncc(=O)n(-c3cnc4c(c3)OCC(NCc3cc5c(cn3)OCCO5)C4)c2n1` (stereo not drawn) [Example 17, 4-{3-[(2,3-Dihydro[1,4]dioxino[2,3-c]pyridin-7-ylmethyl)amino]-3,4-dihydro-2H-pyrano[3,2-b]pyridin-7-yl}-6-(methyloxy)pyrido[2,3-b]pyrazin-3(4H)-one fumarate], the MIC in assay [2] amounted to 16 µg/mL. For the molecule `COc1ccc2ncc(=O)n(-c3cnc4c(c3)CCC(NCc3cc5c(cn3)OCCO5)C4)c2n1` (stereo not drawn) [Example 8, 4-{7-[(2,3-Dihydro[1,4]dioxino[2,3-c]pyridin-7-ylmethyl)amino]-5,6,7,8-tetrahydro-3-quinolinyl}-6-(methyloxy)pyrido[2,3-b]pyrazin-3(4H)-one hydrochloride], the MIC in assay [1] (setting [3]) was not above 1.1 µg/mL. Still for that read-out and setting: the figure for `COc1ccc2ncc(=O)n(-c3cnc4c(c3)C[C@@H](O)[C@@H](NCc3cc5c(nn3)OCCO5)C4)c2n1` (relative stereo) [Example 13, Cis-4-{7-[(6,7-Dihydro[1,4]dioxino[2,3-c]pyridazin-3-ylmethyl)amino]-6-hydroxy-5,6,7,8-tetrahydro-3-quinolinyl}-6-(methyloxy)pyrido[2,3-b]pyrazin-3(4H)-one dihydrochloride] is not above 1.1 µg/mL. The same measure, in the same setting: the same measure for `COc1ccc2ncc(=O)n(-c3cnc4c(c3)CCC(NCc3cc5c(nn3)OCCO5)C4)c2n1` (stereo not drawn) [Example 7, 4-{7-[(6,7-Dihydro[1,4]dioxino[2,3-c]pyridazin-3-ylmethyl)amino]-5,6,7,8-tetrahydro-3-quinolinyl}-6-(methyloxy)pyrido[2,3-b]pyrazin-3(4H)-one hydrochloride]: not above 1.1 µg/mL. Consider `COc1ccc2ncc(=O)n(-c3cnc4c(c3)C[C@@H](O)[C@@H](NCc3cc5c(cn3)OCCO5)C4)c2n1` (relative stereo) [Example 14, Cis-4-{7-[(2,3-Dihydro[1,4]dioxino[2,3-c]pyridin-7-ylmethyl)amino]-6-hydroxy-5,6,7,8-tetrahydro-3-quinolinyl}-6-(methyloxy)pyrido[2,3-b]pyrazin-3(4H)-one], for which the MIC in assay [1] (setting [3]) is not above 1.1 µg/mL.
